Calls of active or inactive are those of the source. The calls are words filed in the database; no cut-off is given here.
What was measured:
Plasmodium falciparum [1] = assay: Ex vivo inhibition of Plasmodium falciparum growth in cultured cells after 48hrs as [3H]hypoxanthine uptake; format: functional, organism-based
[2] = (§1) Inhibition of Plasmodium falciparum recombinant carbonic anhydrase
Plasmodium berghei [3] = assay: Antimalarial activity against Plasmodium berghei infected mice (Mus musculus); format: functional; settings: read-out: ID50 (the source's name)
Plasmodium falciparum [4] = assay: as §1
Plasmodium berghei [5] = assay: Antimalarial activity against Plasmodium berghei infected mice (Mus musculus) at 2.5 to 25 mg/kg; format: functional, organism-based
BC = assay: Cytotoxicity against human BC cells; format: functional, cell-based
KB = assay: Cytotoxicity against human KB cells; format: functional, cell-based

| SMILES | IC50 (Plasmodium falciparum [1]) [µM] | Ki [2] [µM] | other results |
| --- | --- | --- | --- |
| NC(=S)Nc1ccc(S(N)(=O)=O)cc1 | > 50 | 2.1 |  |
| NS(=O)(=O)c1nnc(NC(=S)NC(=O)Nc2ccccc2)s1 | > 50 | 6.73 |  |
| NS(=O)(=O)c1cc(S(N)(=O)=O)c(C(F)(F)F)cc1NC(=O)c1cc2ccccc2oc1=O | > 50 | 9.03 |  |
| NS(=O)(=O)c1ccc(NS(=O)(=O)c2ccc(NC(=O)N(c3ccccc3)c3ccccc3)cc2)cc1 | > 50 | 16.5 |  |
| CCN(CC)C(=S)SNCc1ccc(S(N)(=O)=O)cc1 | > 50 | 8.39 |  |
| Cn1nc(S(N)(=O)=O)s/c1=N/C(=O)c1c(F)c(F)c(F)c(F)c1F | > 50 | 6.87 |  |
| NS(=O)(=O)c1ccccc1NC(=O)N(c1ccccc1)c1ccccc1 | > 50 | 1.99 |  |
| CC(=O)NS(=O)(=O)c1ccc(NC(=S)Nc2ccc(S(N)(=O)=O)cc2)cc1 | > 50 | 4.62 |  |
| CCN(CC)C(=S)SNc1ccc(S(N)(=O)=O)cc1 | > 50 | 3 |  |
| CCN(CC)CCCC(C)Nc1ccnc2cc(Cl)ccc12 (stereo not drawn) [CHLOROQUINE] |  |  | ED50 (Plasmodium berghei [3]): 5 mg/kg; Activity (Plasmodium falciparum [4]): inactive |
| CN(C)c1ccc(/C=N/CCCc2ccc(S(N)(=O)=O)cc2)cc1 | > 50 | > 25 |  |
| CC(=O)Nc1nnc(S(N)(=O)=O)s1 [ACETAZOLAMIDE] | 20 | 0.315 | Activity (Plasmodium berghei [5]): inactive; Activity (BC): inactive; Activity (KB): inactive |
| NS(=O)(=O)c1ccc(NNC(=O)c2cc3ccccc3oc2=O)cc1 | > 50 | 4.06 |  |
| COc1ccc2c(CC(=O)Nc3ccccc3S(N)(=O)=O)cc(=O)oc2c1 | > 50 | 1.44 |  |
| NS(=O)(=O)c1ccc(NC(=O)Nc2ccc(Cl)c(Cl)c2)cc1 | > 50 | 5.58 |  |
| NS(=O)(=O)c1ccc(C/N=C/c2ccccc2Cl)cc1 | 3.89 | 0.25 | Activity (Plasmodium berghei [5]): inactive; Activity (BC): inactive; Activity (KB): inactive |
| NS(=O)(=O)c1nnc(NS(=O)(=O)C(F)(F)C(F)(F)C(F)(F)C(F)(F)C(F)(F)C(F)(F)C(F)(F)C(F)(F)F)s1 | > 50 | 0.192 |  |
| CN(C)c1ccc(/C=N/Cc2ccc(S(N)(=O)=O)cc2)cc1 | > 50 | > 25 |  |
| C[C@@H]1CC[C@H]2[C@@H](C)C(=O)O[C@@H]3O[C@@]4(C)CC[C@@H]1[C@]32OO4 |  |  | Activity (Plasmodium falciparum [4]): inactive |

| SMILES | IC50 (Plasmodium falciparum [1]) [µM] | Ki [2] [µM] | other results |
| --- | --- | --- | --- |
| NS(=O)(=O)c1ccc(NC(=O)c2cc3ccccc3oc2=O)cc1 | > 50 | 5.82 |  |
| Cn1ccnc1/C=N/CCCc1ccc(S(N)(=O)=O)cc1 | > 50 | > 25 |  |
| NS(=O)(=O)c1ccc(CCNC(=O)c2cc3ccccc3oc2=O)cc1 | > 50 | 13.2 |  |
| COc1ccc2c(CC(=O)NNc3ccc(S(N)(=O)=O)cc3)cc(=O)oc2c1 | > 50 | 3.51 |  |
| NS(=O)(=O)c1ccc(CNC(=S)NC(=O)c2ccc(Cl)c(Cl)c2)cc1 | 1 | 0.18 | Activity (BC): inactive; ED50 (Plasmodium berghei [3]): 10 mg/kg; Activity (KB): inactive |
| CN(C)c1ccc(/C=N/c2ccc(S(N)(=O)=O)cc2)cc1 | > 50 | > 25 |  |
| NS(=O)(=O)c1ccc(CNC(=O)N(c2ccccc2)c2ccccc2)cc1 | > 50 | 16 |  |
| C=C[C@H]1CN2CC[C@H]1C[C@H]2[C@H](O)c1ccnc2ccc(OC)cc12 |  |  | Activity (Plasmodium falciparum [4]): inactive |
| NS(=O)(=O)c1ccc(/N=C/c2ccc3ccccc3c2Br)cc1 | > 50 | 4.16 |  |
| NS(=O)(=O)c1nnc(NC(=O)c2c(F)c(F)c(F)c(F)c2F)s1 | > 50 | 3.44 |  |
| NS(=O)(=O)c1ccc(CNC(=O)c2cc3ccccc3oc2=O)cc1 | > 50 | 5.05 |  |
| NS(=O)(=O)c1cccc(NC(=O)c2cc3ccccc3oc2=O)c1 | > 50 | > 25 |  |
| COc1ccc2c(CC(=O)Nc3cc(C(F)(F)F)c(S(N)(=O)=O)cc3S(N)(=O)=O)cc(=O)oc2c1 | > 50 | 2.52 |  |
| NS(=O)(=O)c1nnc(NS(=O)(=O)c2c(F)c(F)c(F)c(F)c2F)s1 | > 50 | 2.58 |  |
| COc1ccc2c(CC(=O)Nc3ccc(S(N)(=O)=O)cc3)cc(=O)oc2c1 | > 50 | 0.97 |  |
| COc1ccc2c(CC(=O)Nc3cccc(S(N)(=O)=O)c3)cc(=O)oc2c1 | > 50 | 4.58 |  |
| NS(=O)(=O)c1ccccc1NC(=O)c1cc2ccccc2oc1=O | > 50 | 18.5 |  |
| NS(=O)(=O)c1ccc(NC(=O)c2ccc(S(N)(=O)=O)cc2)cc1 | > 50 | 3.05 |  |
| NS(=O)(=O)c1ccccc1NS(=O)(=O)c1c(F)c(F)c(F)c(F)c1F | > 50 | 3.06 |  |

Reference: ChEMBL document CHEMBL1142445, “Carbonic anhydrase inhibitors: inhibition of Plasmodium falciparum carbonic anhydrase with aromatic/heterocyclic sulfonamides-in vitro and in vivo studies” (Bioorg Med Chem Lett, 2008)
